Source: PubChem BioAssay AID1996
In brackets after ≈: the same amount, converted by molar mass. Non-standard residues stand in square brackets, D forms with d. Residues, ends and D or L forms follow the SMILES beside them. pGlu = O=C1CC[C@@H](C(=O)O)N1; Thz = O=C(O)[C@@H]1CSCN1

Settings: buffer; pH 7.4; 200.0 µM

SMILES | solubility kinetic [µg/mL]
O=S(=O)(NCc1cccnc1)c1ccc(Cl)c2ccccc12 | > 49.9
Cc1[nH]c2ccccc2c1C(=O)C(=O)N1CCN(C(=O)c2ccco2)CC1 | > 54.8
Cc1cc(N(C)Cc2ccccc2)nc2cc(O)ccc12 | 30.5 (≈ 110 µM)
Cc1cccc(OCc2nc3ccccc3n2C)c1.Cl | 30.4
Cc1ccc(NC(=O)CNc2cc(S(=O)(=O)N3CCOCC3)ccc2N2CCOCC2)cc1S(=O)(=O)N(C)C | 5.3 (≈ 9.11 µM)
Cl.Clc1cccc(CNCCCSc2ncccn2)c1 | > 49.5
O=CN1CCN(C(=O)c2cccc([N+](=O)[O-])c2)CC1 | > 39.5
O=C(COc1cccc(F)c1)Nc1nc(-c2ccncc2)cs1 | 5 (≈ 15.2 µM)
O=C(CCC1CCCCC1)NCCN1CCOCC1 | > 40.3
CCOC(=O)c1ccc(CSC(=N)N)o1 | 31.4 (≈ 138 µM)
COc1ccccc1C(=O)NCCNC(=O)c1ccc(C)nc1 | 45.7 (≈ 146 µM)
c1ccc2c(OCCCCN3CCCC3)cccc2c1 | 40.1 (≈ 149 µM)
O=C1NCCN/C1=C\C(=O)c1ccc(F)cc1 | 32.5 (≈ 139 µM)
COC(=O)c1cccc(NC(=O)Cc2ccsc2)c1 | > 41.3
Cc1ccccc1CCN1CCCC(CN(C)CC(C)(C)C)C1 (configuration not stated) | 15 (≈ 47.4 µM)
COc1ccc(NC(=O)Nc2cnccn2)cc1OC | > 41.1
CCOC(=O)C1CCCN(CC(=O)Nc2nccs2)C1 (configuration not stated) | > 44.6
CCN(c1ccccc1)S(=O)(=O)c1ccc(Cl)c(C(=O)O)c1 | > 51
COCc1cc(=O)[nH]c(N2CCN(c3ccccc3OC)CC2)n1 | 46.3 (≈ 140 µM)
COc1ccc(NC(=O)C2CCCN(S(C)(=O)=O)C2)cc1 (configuration not stated) | 34.9 (≈ 112 µM)
Cl.O=C(NC(=S)N1CCN(c2ccccc2)CC1)c1ccco1 | > 52.8
COc1cccc(NC(=O)CCN2C(=O)c3cccc([N+](=O)[O-])c3C2=O)c1 | > 55.4
O=C(CS(=O)c1ccc(Br)cc1)N1CCOCC1 (configuration not stated) | 49.4 (≈ 149 µM)
COc1cccc(C(=O)NCC2(c3ccccc3)CCCC2)c1 | 28.4 (≈ 91.8 µM)
COc1ccc(CC(=O)N(Cc2ccccc2)C(C)C)cc1 | 40.7 (≈ 137 µM)

SMILES | solubility kinetic [µg/mL]
C=CCn1c(SCC(=O)Nc2ccc(C(=O)O)cc2)nc2scc(-c3ccccc3)c2c1=O | > 71.6
Cc1ccccc1C(=O)NC1CCN(C(=O)Nc2ccc(F)cc2)CC1 | 21.5 (≈ 60.5 µM)
CCCCn1c(N)c(N(CC)C(=O)c2cccs2)c(=O)[nH]c1=O | 10.1 (≈ 30 µM)
CC(=O)N/C(=C\c1ccccc1)C(=O)OCC(=O)Nc1ccc(C)c(S(=O)(=O)N(C)C)c1 | 56.9 (≈ 124 µM)
CCOC(=O)c1cc(C#N)c(SC)nc1C | 0.9 (≈ 3.81 µM)
NC(=O)c1cnccn1 | > 18.5
COc1ccccc1C(=O)NCCC(=O)N1CCCCC1 | > 43.6
CC(C)CC1C(C#N)=C(N)OC2=C1C(=O)CC(c1ccccc1)C2 (configuration not stated) | 37.6 (≈ 117 µM)
Cc1ccc(S(=O)(=O)N2CCOCC2)cc1NC(=O)COC(=O)c1ccc(Cl)s1 | 3 (≈ 6.54 µM)
COc1ccc(C(=O)CC(=O)C(=O)Nc2cc(C)ccc2C)cc1 | 11.2 (≈ 34.4 µM)
COC(=O)c1cc(NC(=O)c2cccnc2)ccc1N1CCOCC1 | > 51.2
Cc1ccccc1CC(=O)Nc1cccnc1 | > 33.9
O=C1CC[C@@H](C(=O)N2CSC[C@H]2C(=O)O)N1 ([pGlu]-[Thz]-OH) | > 36.6
COc1c(C(=O)Nc2nccs2)ccc2ccccc12 | 17 (≈ 59.8 µM)
S=C(NCc1ccco1)N1CCN(c2ccccc2Cl)CC1 | 19.5 (≈ 58.1 µM)
CC(=O)Oc1ccc2c(=O)c(-c3nc4ccccc4s3)coc2c1 | 1 (≈ 2.96 µM)
O=C(COC(=O)c1ccccc1O)Nc1ncc(Cl)cc1Cl | 23.5 (≈ 68.9 µM)
CCNC(=O)CC1C(=O)N(CC)C(=S)N1NC(=O)c1ccccc1 (configuration not stated) | > 52.3
O=C(Cc1ccc([N+](=O)[O-])cc1)NCc1cccnc1 | > 40.7
COc1cc(C(=O)Nc2nnc(C)s2)c([N+](=O)[O-])cc1OC | > 48.6
COc1ccc(CCNC(=O)CN2C(=O)NC(c3ccccc3)(c3ccccc3)C2=O)cc1 | 10 (≈ 22.5 µM)
Cc1cc(C)c2ccc(/C=N/O)nc2c1O | 2.8 (≈ 12.9 µM)
CCOC(=O)Cn1cc(Cl)c(=O)c(Cl)c1 | 35.8 (≈ 143 µM)
COc1ccc(C(=O)NCc2ccc3c(c2)OCO3)cc1 | 42.4 (≈ 149 µM)
CCOc1ccc(OCCC(=O)Nc2ccc(F)cc2C)cc1 | 5 (≈ 15.8 µM)

SMILES | solubility kinetic [µg/mL]
Cc1cccc(NC(=O)CSc2nc3ccccc3c(=O)n2C)c1 | 0.5 (≈ 1.47 µM)
O=c1ccc2cc(S(=O)(=O)Nc3ccccc3F)ccc2o1 | > 47.9
CCC(=O)NCc1ccc2[nH]c(C)cc2c1 | 32.3 (≈ 149 µM)
COc1ccccc1CNCc1cc(=O)oc2c(C)c(C)ccc12 | 3.6 (≈ 11.1 µM)
CC(C)(Oc1ccc(Cl)cc1)C(=O)NC1CC1 | > 38.1
COc1cc2c(cc1OC)C(C)N(C(=O)c1c(-c3ccccc3)noc1C)CC2 (configuration not stated) | 9 (≈ 22.9 µM)
CC(=O)NS(=O)(=O)c1ccc(NC(=O)c2cccc3ccccc23)cc1 | 53.9 (≈ 146 µM)
CC(=O)c1cc(N2CCOCC2)ccc1[N+](=O)[O-] | > 37.5
COc1ccc2nc(SCCC(=O)O)cc(C)c2c1 | > 41.6
OC(CNCc1ccccc1F)COc1cccc2ccccc12 (configuration not stated) | 39.6 (≈ 122 µM)
Cc1ccc(C(=O)NCC(=O)OCC(=O)NCC(F)(F)F)cc1 | 47.1 (≈ 142 µM)
O=c1cc(-c2ccccc2)nc(SCc2ccccc2F)[nH]1 | < 0.3
COc1ccc(Cl)cc1Nc1nc(N)c2ccccc2n1.Cl | 5.3
O=C(CNS(=O)(=O)c1ccccc1)N1CCCC1 | > 40.2
CC(=O)NC(CC(=O)N(C)Cc1cccc(Cl)c1Cl)c1ccccc1 (configuration not stated) | > 56.9
O=C(COC(=O)COc1ccccc1)NC1CCCC1 | > 41.6
CC(C)(C)NC(=O)NC(=O)CN1CCN(c2ccccc2)CC1 | > 47.8
O=C(O)Cn1cc(C=C2C(=O)NC(=O)NC2=O)c2ccccc21 | > 47
O=C1/C(=C/c2cccnc2)N2CCC1CC2 | > 32.1
Cc1cc(NC(=O)NC(=O)c2ccccc2)no1 | 2.8 (≈ 11.4 µM)
Cc1ccc(N2C(=O)CSC2=S)cc1C | < 0.5
COc1ccc(S(=O)(=O)NCc2cccnc2)cc1OC | > 46.3
Fc1ccccc1CNCCc1ccc2c(c1)OCO2 | 40.5 (≈ 148 µM)
CC1CCCC(C)N1C(=O)COc1cccc(Oc2ccccc2)c1 (configuration not stated) | 20.8 (≈ 61.3 µM)
O=C(Nc1cccc2cccnc12)c1ccccc1Br | 0.4 (≈ 1.22 µM)

SMILES | solubility kinetic [µg/mL]
O=C(CNC(=O)c1ccc(OC(F)F)cc1)NC1CCCc2ccccc21 (configuration not stated) | 5.6 (≈ 15 µM)
Cc1ccc(C)c(NC(=S)NCc2ccccc2)c1 | 40.2 (≈ 149 µM)
O=C(O)C1CCCN1S(=O)(=O)c1ccc(Br)cc1 (configuration not stated) | > 50.1
CC(=O)Nc1ccc2c3c(cccc13)C(=O)N(c1ccccc1)C2=O | 2.3 (≈ 6.96 µM)
Oc1c(I)cc(Cl)c2cccnc12 | 0.8 (≈ 2.62 µM)
COc1cccc(OC)c1OC(=O)c1cnccn1 | < 0.3
COC(=O)c1sccc1NC(=O)Nc1ccc(C(C)=O)cc1 | 8.4 (≈ 26.4 µM)
CSc1ncc(C(=O)Nc2ccccc2)cn1 | > 36.8
c1ccc2c(CN3CCCCC3)c[nH]c2c1 | > 32.1
CN1C2CCC1CC(NS(=O)(=O)c1ccc(C#N)cc1)C2 (configuration not stated) | 45.6 (≈ 149 µM)
COc1ccc(-c2nc3ncccc3o2)cc1NC(=O)c1ccco1 | 2.5 (≈ 7.46 µM)
CSc1ccccc1NS(=O)(=O)c1cccc2nonc12 | > 48.2
COc1ccc(NC(=S)N2CCN(c3ccccc3)CC2)c(OC)c1 | 2.6 (≈ 7.27 µM)
COc1ccc(C)cc1NC(=O)CN1C(=O)C2CC=CCC2C1=O (configuration not stated) | > 49.3
COc1cccc(NC(=O)c2cnc(SC)nc2)c1 | 14.3 (≈ 51.9 µM)
Cc1cccc(N2C(=O)C(Cl)=C(N3CCOCC3)C2=O)c1 | > 46
Cc1cc(NC(=O)COC(=O)c2ccccc2[N+](=O)[O-])no1 | 21.3 (≈ 69.8 µM)
CC(C)CNC(=O)C(=O)NCC1OCCCN1S(=O)(=O)c1cccs1 (configuration not stated) | > 58.4
COc1ccc(NC(=O)Nc2c[nH]c(=O)[nH]c2=O)cc1OC | 44.8 (≈ 146 µM)
CC(=O)Nc1ccc2nsnc2c1 | > 29
CCOC(=O)C1=C(N)c2ccccc2CC1C1CCCC1 (configuration not stated) | 0.8 (≈ 2.8 µM)
O=C(COC(=O)CCC(=O)c1cccs1)Nc1ccc(F)c(F)c1F | 8.1 (≈ 21.8 µM)
CC1CN2C(c3ccc([N+](=O)[O-])cc3)=CSC2=N1 (configuration not stated) | 26.3 (≈ 101 µM)
COc1ccc(CNc2ccc3c(c2)nc(C)n3C)cc1OC | 37.2 (≈ 119 µM)
CCOC(=O)CSc1nc(-c2ccccc2)nc2ccc(C)cc12 | < 0.4

SMILES | solubility kinetic [µg/mL]
COC(=O)Nc1ccc(S(=O)(=O)NC2CCCCC2)cc1 | 3.2 (≈ 10.2 µM)
COCCNC(=S)N1CCC(NC(=O)c2ccco2)CC1 | > 46.7
CS(=O)(=O)N(CC(=O)N1CCCC1)Cc1ccccc1 | > 44.5
CCOC(=O)c1c(C)n(Cc2ccc(F)cc2)c2ccc(O)cc12 | < 0.7
CCCc1cc(=O)[nH]c(SCC(=O)N2c3ccccc3CC2C)n1 (configuration not stated) | > 51.5
COc1ccc(C(=O)Nc2ccc(-c3n[nH]c(=S)o3)cc2)cc1 | > 49.1
CC(C)CCC1(C)NC(=O)N(CC(=O)Nc2ccc3c(c2)OCCO3)C1=O (configuration not stated) | 49.6 (≈ 132 µM)
Cc1ccc(C(=O)NC(C)c2ccc3c(c2)OCO3)s1 (configuration not stated) | > 43.4
CS(=O)(=O)c1ccccc1C(=O)Nc1cccc2ncccc12 | 35.9 (≈ 110 µM)
Oc1ccccc1Oc1ncc(Br)c(Cl)n1 | > 45.2
CC1CCC(NC(=O)Cn2c(=O)oc3ccccc32)CC1 (configuration not stated) | 4.9 (≈ 17 µM)
O=C(O)CSCC(=O)NC1CCCc2ccccc21 (configuration not stated) | > 41.9
Br.COC(=O)c1ccc(CN2CCSC2=N)cc1 | 49.6
COc1ccc(NC(=O)NC2(C(=O)N3CCOCC3)CCCCC2)cc1 | 43 (≈ 119 µM)
CCCCN(C(=S)SC)C1CCS(=O)(=O)C1 (configuration not stated) | 36.9 (≈ 131 µM)
CSc1ncccc1C(=O)NC1CCCCCC1 | 35.5 (≈ 134 µM)
CC(NC(=O)C1c2ccccc2Oc2ccccc21)C1CCCO1 (configuration not stated) | 37.8 (≈ 117 µM)
NCCCS(=O)(=O)O | < 0.3
N#Cc1cccc(CSc2ncnc(N)n2)c1 | > 36.5
CCOC(=O)C1C(CC)NC(=S)NC1(C)O (configuration not stated) | 35 (≈ 142 µM)
Cn1nc(C(F)(F)F)c(-c2ccccc2)c1NC(=O)CCC(=O)O | > 51.2
CC(C)=CC(=O)OCC(=O)Nc1ccc(SC(F)F)cc1 | 10.6 (≈ 33.6 µM)
